# Laboratory results published in US5942532A, “2-substituted phenyl-benzimidazole antibacterial agents” (Ortho Pharmaceutical Corporation, priority 1997, dated 1999).
# pIC50: −log10 of the molar value. Where two headings read alike, the source gives them in different places.
# Target: T1, Kinase A and Spo0F (Bacillus subtilis, UniProt P16497)
# T1 construct: made in house; host or cells: recombinant E. coli
# T1 sequence (P16497 1-606): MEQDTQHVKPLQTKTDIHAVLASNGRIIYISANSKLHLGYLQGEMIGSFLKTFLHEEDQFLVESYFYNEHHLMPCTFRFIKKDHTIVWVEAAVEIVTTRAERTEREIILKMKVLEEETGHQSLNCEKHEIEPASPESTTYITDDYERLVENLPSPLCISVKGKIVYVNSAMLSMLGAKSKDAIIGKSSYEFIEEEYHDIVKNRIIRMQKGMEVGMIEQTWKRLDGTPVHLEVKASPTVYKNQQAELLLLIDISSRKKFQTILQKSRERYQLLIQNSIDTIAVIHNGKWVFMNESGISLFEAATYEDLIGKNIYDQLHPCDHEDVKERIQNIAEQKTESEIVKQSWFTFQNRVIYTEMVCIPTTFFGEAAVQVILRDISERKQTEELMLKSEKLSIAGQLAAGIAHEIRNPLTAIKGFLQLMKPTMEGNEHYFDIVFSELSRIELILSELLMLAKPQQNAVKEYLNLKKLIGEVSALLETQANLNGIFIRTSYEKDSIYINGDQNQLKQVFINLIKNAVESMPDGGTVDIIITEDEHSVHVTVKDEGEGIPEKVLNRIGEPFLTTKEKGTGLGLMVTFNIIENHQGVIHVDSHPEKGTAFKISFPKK
# Experiment: Autophosphorylation of Kinase A and Transphosphorylation of Spo0F Assay (HPK in vitro assay)
# Format: biochemical
# Protocol: Autophosphorylation of Kinase A and Transphosphorylation of Spo0F Assay
# To study the effect of the compounds of the present invention on the signal transduction process in bacteria, the inhibiting effect of the compounds on the sporulation operon proteins Kinase A and Spo0F was examined. Specifically, the inhibition of autophosphorylation of Kinase A and the transphosphorylation of Spo0F was determined in the following assays. The Spo0F response regulator is the primary substrate for phosphorylation by the protein kinase, Kin A, involved in the sporulation process in bacteria. See D. Burbulys, K. A. Trach, J. A. Hoch, Cell, 64, 545-552 (1991). Spo0F and KinA were prepared from recombinant E. coli overexpressing the proteins (J. Cavanagh et al, Amino Acids, 6, 131-140 (1994) and references therein).
# The following stock reagents were either prepared and used promptly or stored at the indicated temperature:
# 8×Salts: 2 M KCl (5 mL), 1 M MgCl2 (800 mL), 1 M CaCl2 (100 mL), 10 mg/mL phenylmethylsulfonyl fluoride (200 mL), 1 M dithioreitol (50 mL), 0.25 M Na2 EDTA (32 mL) and H2 O 3.82 mL (-20° C.)
# 5×Loading Dye: 0.5M TRIS-HCl, pH 6.8 (7.5 mL), 10% SDS (2 mL) 0.1% bromophenol blue (0.5 mL), 100% glycerol (3 mL) and 12.5 M 2-mercaptoethanol (0.3 mL)
# 1-1.3 mg/mL KinA: 15 mM TRIS-HCl, pH 8.0, 6 mM KCl; 4 mM 2-mercaptoethanol;40% glycerol (-20° C.)
# 1 mg/mL Spo0F: 17.5 mM TRIS-HCl, pH 8.0; 0.7 mM KCl; 0.7 mM MgCl2; 0.7 mM CaCl2; 5 mM 2-mercaptoethanol; 30% glycerol (-20° C.)
# 5% Stacking Gel: 40% 29:1 acrylamide:bis acrylamide (1.25 mL), 0.5 M TRIS-HCl, pH 6.8 (2.5 mL), 10% SDS (0.1 mL), D-H2 O (6.15 mL) 10% ammonium persulfate (100 mL) and TEMED (25 mL)
# SDS Running Buffer: TRIS-BASE (3.02 g), glycine (14.4 g), SDS (1 g), D-H2 O (to 1 L)
# The reaction mixture was prepared from 8×Salts (87 μL), 1M TRIS, pH 8 (118 μL), 50% glycerol (63 μL), Spo0F (14.1 μL) and KinA (7.0 μL). Microcentrifuge tubes were charged with the reaction mixture (18.5 μL) and a 1.0 mM solution of the test compound in 5% DMSO (18.5 μL), and incubated for 15 min on ice. 100 mM ATP solution (3.0 μl, containing 625 μCi [^32 P]ATP) was added, and the mixture left for 10 minutes at room temperature. The reaction was quenched with 5× loading dye (10 μL per tube) and the samples were loaded on a prepared 5% Stacking Gel, or stored on dry ice until ready for use. The prepared wells were filled with SDS Running Buffer, samples were loaded into the wells, and 80 volts were applied to the gel until the dye front reached the bottom of the stacking gel. The voltage was then increased to 250 volts until electrophoresis was complete. Radioactive bands in the gel corresponding to phosphorylated KinA and Spo0F were imaged and quantitated with a phosphoimager.
# If either enzyme was inhibited (as evidenced by the absence of labelled protein in the developed gel), an IC50 was calculated by running the assay with a range of inhibitor concentrations from 1 to 500 μM. After electrophoresis of the reaction mixtures, percent inhibition was determined by measuring the concentration of radioactive phosphorus with a phosphoimager and calculating the values using a software program (BioRad Molecular Analyst).
# [1] = Table 1, KinA/Spo0F phosphorylation, in µM
# [2] = Table 3, KinA/Spo0F phosphorylation, read-out: IC50
# [3] = Table 2, KinA/Spo0F phosphorylation, in µM
# [4] = Table 6, KinA/Spo0F phosphorylation, in µM
Structure (SMILES),IC50 [1],further results
N=C(N)c1ccc2nc(-c3ccc(Oc4c([N+](=O)[O-])cc(C(F)(F)F)cc4[N+](=O)[O-])cc3)[nH]c2c1 [Example 45],28,–
CCn1c2ccccc2c2ccc(-c3nc4ccc(C(=N)N)cc4[nH]3)cc21 [Example 73],–,"IC50 (Table 4, KinA/Spo0F phosphorylation, read-out: IC50): 22.0 µM"
CC(C)(C)c1ccc(Oc2cccc(-c3nc4cc(C(=N)N)ccc4[nH]3)c2)cc1 [Example 68],–,IC50 [2]: 31.6 µM
N=C(N)c1ccc2[nH]c(-c3ccc(Oc4ccc(Cl)cc4)cc3)nc2c1 [Example 59],–,IC50 [3]: 13.9
c1ccc(Oc2ccc(-c3nc4ccc(-c5nc6ccccc6[nH]5)cc4[nH]3)cc2)cc1 [Example 84],–,IC50 [4]: 32.3
CC(C)(C)c1cc(-c2nc3ccc(N)cc3[nH]2)c(O)c(C(C)(C)C)c1 [Example 90],–,IC50 [4]: 152
CC(C)(C)c1cc(-c2nc3ccc(C(=N)N)cc3[nH]2)c(OCC(=O)O)c(C(C)(C)C)c1 [Example 42],199,–
N#CCCN(CCC#N)c1ccc(-c2nc3ccc(C(=N)N)cc3[nH]2)cc1 [Example 25],35.6,–
CCC(C)(C)c1ccc(-c2nc3ccc(C(=N)N)cc3[nH]2)cc1 [Example 8],37.6,–
N=C(N)c1ccc2[nH]c(-c3cccc(Oc4ccc(Cl)c(Cl)c4)c3)nc2c1 [Example 67],–,IC50 [2]: 32 µM
CC(C)(C)c1cc(-c2nc3ccc(C4=NCCCN4)cc3[nH]2)c(O)c(C(C)(C)C)c1 [Example 86],–,IC50 [4]: 32
N=C(N)c1cc(N)c2[nH]c(-c3ccc(Oc4ccccc4)cc3)nc2c1 [Example 62],–,IC50 [3]: 19
N=C(N)c1ccc2nc(-c3ccc(Oc4ccc(N)cc4)cc3)[nH]c2c1 [Example 51],–,IC50 [3]: 140.6
COc1cc(Br)c(O)c(-c2nc3ccc(C(=N)N)cc3[nH]2)c1 [Example 37],171,–
CCCCCCCCCCOc1ccc(-c2nc3ccc(C(=N)N)cc3[nH]2)cc1OCCCCCCCCCC [Example 12],8.3,–
CC(C)(C)c1cc(-c2nc3ccc(C(=N)N)cc3[nH]2)cc(C(C)(C)C)c1O [Example 9],75.9,–
N=C(N)c1ccc2nc(-c3ccc(NCc4ccccc4)cc3)[nH]c2c1 [Example 22],222,–

Structure (SMILES),IC50 [1],further results
CC(C)(C)c1cc(-c2nc3ccc(CN)cc3[nH]2)c(O)c(C(C)(C)C)c1 [Example 91],–,IC50 [4]: 4
CC(C)(C)c1cc(-c2nc3ccc(C(=N)N)cc3[nH]2)c(O)c(C(C)(C)C)c1 [Example 30],8.5,–
N=C(N)c1ccc2nc(-c3ccc(OCc4ccc([N+](=O)[O-])cc4)cc3)[nH]c2c1 [Example 11],19.4,–
N=C(N)c1ccc2nc(-c3ccc(C(F)(F)F)cc3)[nH]c2c1 [Example 3],169,–
N=C(N)c1ccc(Oc2ccc(-c3nc4ccc(C(=N)N)cc4[nH]3)cc2)cc1 [Example 47],–,IC50 [3]: 131
N=C(N)c1ccc2nc(-c3cc([N+](=O)[O-])cc(Br)c3O)[nH]c2c1 [Example 40],199,–
CC(C)(C)c1cc(-c2nc3ccc(C4=NCCCCN4)cc3[nH]2)c(O)c(C(C)(C)C)c1 [Example 87],–,IC50 [4]: 29
N=C(N)c1ccc2nc(-c3cc(Br)cc(Br)c3O)[nH]c2c1 [Example 32],51.1,–
N=C(N)c1ccc2nc(-c3ccc(Oc4ccc([N+](=O)[O-])c([N+](=O)[O-])c4)cc3)[nH]c2c1 [Example 57],–,IC50 [3]: 31.6
N=C(N)c1ccc2nc(-c3cc(-c4ccccc4)cc(-c4ccccc4)c3)[nH]c2c1 [Example 21],31,–
CC(C)(C)c1ccc(O)c(-c2nc3ccc(C(=N)N)cc3[nH]2)c1 [Example 35],–,"pIC50 (Table 1, KinA/Spo0F phosphorylation, read-out: IC50): 4.19"
N=C(N)c1ccc2nc(-c3cc(-c4ccccc4)cc(-c4ccccc4)c3O)[nH]c2c1 [Example 39],23,–
N=C(N)Cn1c(-c2ccc(N(c3ccccc3)c3ccccc3)cc2)nc2ccc(C(=N)N)cc21 [Example 82],–,"IC50 (Table 5, KinA/Spo0F phosphorylation, in µM): 22"
N=C(N)c1ccc2nc(-c3ccc(Oc4ccccc4)cc3)[nH]c2c1 [Example 48],–,"pIC50 (Table 2, KinA/Spo0F phosphorylation, read-out: IC50): 4.38"
COc1cc(Oc2ccc(-c3nc4ccc(C(=N)N)cc4[nH]3)cc2)cc(OC)c1OC [Example 53],–,IC50 [3]: 28.7
N=C(N)c1ccc2nc(-c3cc([N+](=O)[O-])cc([N+](=O)[O-])c3O)[nH]c2c1 [Example 33],74.7,–
CC(C)(C)c1ccc(-c2nc3ccc(C(=N)N)cc3[nH]2)cc1 [Example 10],70.6,–
